According to patent publication US7138361B2, “Herbicidal heterocycles” (E. I. du Pont de Nemours and Company, priority 2000, dated 2006):

Assays:
Type in all cases: in vivo
[1] = tested on: rice (Oryza saliva); experiment: Test C flooded paddy test; settings: for Rice plant response rating: Flooded Paddy, scale 0 to 100, 0 no effect, 100 complete control; for Plant response rating, Rice: flooded paddy test, scale 0 to 100 (0 no effect, 100 complete control)
Summary of the method: (§1)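 Visual ratings (0 = no effect, 100 = complete control) were made 12–14 days after treatment, relative to greenhouse controls. Plants in the flooded paddy test were rice, smallflower flatsedge, duck salad and barnyardgrass, treated at the 2-leaf stage.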

[2] = tested on: duck salad (Heteranthera limosa); experiment: Test C flooded paddy test; settings: for Ducksalad plant response rating: Flooded Paddy, scale 0 to 100, 0 no effect, 100 complete control; for Plant response rating, Ducksalad: flooded paddy test, scale 0 to 100 (0 no effect, 100 complete control)
Summary of the method: as §1

[3] = tested on: smallflower flatsedge (Cyperus difformis); experiment: Test C flooded paddy test; settings: for Flatsedge plant response rating: Flooded Paddy, scale 0 to 100, 0 no effect, 100 complete control; for Plant response rating, Flatsedge: flooded paddy test, scale 0 to 100 (0 no effect, 100 complete control)
Summary of the method: as §1

[4] = tested on: barnyardgrass (Echinochloa crus-galli); experiment: Test C flooded paddy test; settings: for Barnyardgrass plant response rating: Flooded Paddy, scale 0 to 100, 0 no effect, 100 complete control; for Plant response rating, Barnyardgrass: flooded paddy test, scale 0 to 100 (0 no effect, 100 complete control)
Summary of the method: as §1

[5] = tested on: lambsquarters (Chenopodium album); experiment: Test C preemergence; settings: for Plant response rating, Lambsquarters: scale 0 to 100, 0 no effect, 100 complete control
Summary of the method: (§2)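 Pre- and postemergence treatments used a non-phytotoxic solvent/surfactant formulation; post-treated plants measured 2 to 18 cm. Greenhouse hold 12–14 d; % control estimated visually relative to controls.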

[6] = tested on: soybean (Glycine max); experiment: Test C preemergence; settings: for Plant response rating, Soybean: scale 0 to 100, 0 no effect, 100 complete control
Summary of the method: as §2

[7] = tested on: Nightshade; experiment: Test C preemergence; settings: scale 0 to 100, 0 no effect, 100 complete control
[8] = tested on: corn (Zea mays); experiment: Test C preemergence; settings: for Plant response rating, Corn: scale 0 to 100, 0 no effect, 100 complete control; for Plant response rating (0 to 100), Corn: preemergence, visual evaluation after 12 to 14 days
Summary of the method: as §2

[9] = tested on: pigweed (Amaranthus retroflexus); experiment: Test C preemergence; settings: for Plant response rating, Pigweed: scale 0 to 100, 0 no effect, 100 complete control
Summary of the method: as §2

[10] = tested on: yellow nutsedge (Cyperus esculentus); experiment: Test C preemergence; settings: for Plant response rating, Nutsedge: scale 0 to 100, 0 no effect, 100 complete control
Summary of the method: as §2

[11] = tested on: kochia (Kochia scoparia); experiment: Test C preemergence; settings: for Plant response rating, Kochia: scale 0 to 100, 0 no effect, 100 complete control; for Plant response rating (0 to 100), Kochia: preemergence, visual evaluation after 12 to 14 days
Summary of the method: as §2

[12] = tested on: johnsongrass (Sorghum halepense); experiment: Test C preemergence; settings: for Plant response rating, Johnsongrass: scale 0 to 100, 0 no effect, 100 complete control; for Plant response rating (0 to 100), Johnsongrass: preemergence, visual evaluation after 12 to 14 days
Summary of the method: as §2

[13] = tested on: woolly cupgrass (Eriochloa villosa); experiment: Test C preemergence; settings: for Plant response rating, Cupgrass, Woolly: scale 0 to 100, 0 no effect, 100 complete control; for Plant response rating (0 to 100), Cupgrass, Woolly: preemergence, visual evaluation after 12 to 14 days
Summary of the method: as §2

[14] = tested on: Sunflower; experiment: Test C preemergence; settings: Rate 250 g/ha, scale 0 to 100, 0 no effect, 100 complete control
[15] = tested on: Nightshade; experiment: Test C preemergence; settings: Rate 500 g/ha, visual evaluation after 12 to 14 days
[16] = tested on: wheat (Triticum aestivum); experiment: Test B postemergence; settings: 13 to 15 days
Summary of the method: (§3)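 Visual injury scores, 0 = no effect to 100 = complete control, assigned against controls after 13 to 15 days in the greenhouse. Compounds formulated in non-phytotoxic solvent plus surfactant and applied to soil after planting (pre) or onto foliage of 1- to 4-leaf plants (post).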

[17] = tested on: corn (Zea mays); experiment: Test B postemergence; settings: 13 to 15 days
Summary of the method: as §3

[18] = tested on: barnyardgrass (Echinochloa crus-galli); experiment: Test B postemergence; settings: 13 to 15 days
Summary of the method: as §3

[19] = tested on: wild oat (Avena fatua); experiment: Test B postemergence; settings: 13 to 15 days
Summary of the method: as §3

[20] = preemergence, Rate 500 g/ha, visual evaluation after 12 to 14 days
[21] = Rate 125 g/ha, scale 0 (no effect) to 100 (complete control)
[22] = Rate 500 g/ha, scale 0 to 100, 0 is no effect, 100 is complete control

Cc1ccc(N2CCC(n3ccc(C(C)(C)C)n3)C2=O)cc1OC(F)F (centres unmarked) [Compound 79]
Rice plant response rating ([1]; Rate 250 g/ha): 20 | Rice plant response rating ([1]; Rate 500 g/ha): 50 | Plant response rating, Rice ([1]; Rate 62 g/ha): 0 | Plant response rating, Rice ([1]; Rate 125 g/ha): 20 | Ducksalad plant response rating ([2]; Rate 250 g/ha): 90 | Ducksalad plant response rating ([2]; Rate 500 g/ha): 90 | Plant response rating, Ducksalad ([2]; Rate 62 g/ha): 0 | Plant response rating, Ducksalad ([2]; Rate 125 g/ha): 30 | Flatsedge plant response rating ([3]; Rate 250 g/ha): 90 | Flatsedge plant response rating ([3]; Rate 500 g/ha): 90 | Plant response rating, Flatsedge ([3]; Rate 62 g/ha): 90 | Plant response rating, Flatsedge ([3]; Rate 125 g/ha): 90 | Barnyardgrass plant response rating ([4]; Rate 250 g/ha): 90 | Barnyardgrass plant response rating ([4]; Rate 500 g/ha): 90 | Plant response rating, Barnyardgrass ([4]; Rate 62 g/ha): 30 | Plant response rating, Barnyardgrass ([4]; Rate 125 g/ha): 40 | Plant response rating, Lambsquarters ([5]; Rate 62 g/ha): 100 | Plant response rating, Lambsquarters ([5]; Rate 125 g/ha): 100 | Plant response rating (0 to 100), Lambsquarters [5, 20]: 100 | Plant response rating, Lambsquarters ([5]; preemergence, Rate 250 g/ha): 100 | Plant response rating, Soybean ([6]; Rate 125 g/ha): 0 | Plant response rating (0 to 100), Soybean [6, 20]: 50 | Plant response rating, Soybean ([6]; preemergence, Rate 250 g/ha): 0 | Plant response rating, Nightshade ([7]; Rate 62 g/ha): 20 | Plant response rating, Nightshade ([7]; Rate 125 g/ha): 50 | Plant response rating, Nightshade ([7]; Rate 250 g/ha): 50 | Plant response rating, Corn ([8]; Rate 62 g/ha): 0 | Plant response rating, Corn ([8]; Rate 125 g/ha): 0 | Plant response rating (0 to 100), Corn ([8]; Rate 250 g/ha): 0 | Plant response rating (0 to 100), Corn ([8]; Rate 500 g/ha): 0 | Plant response rating, Pigweed ([9]; Rate 125 g/ha): 10 | Plant response rating (0 to 100), Pigweed [9, 20]: 100 | Plant response rating, Pigweed ([9]; preemergence, Rate 250 g/ha): 20 | Plant response rating, Nutsedge ([10]; Rate 62 g/ha): 0 | Plant response rating, Nutsedge ([10]; Rate 125 g/ha): 0 | Plant response rating (0 to 100), Nutsedge [10, 20]: 0 | Plant response rating, Nutsedge ([10]; preemergence, Rate 250 g/ha): 0 | Plant response rating, Kochia ([11]; Rate 62 g/ha): 100 | Plant response rating, Kochia ([11]; Rate 125 g/ha): 100 | Plant response rating (0 to 100), Kochia ([11]; Rate 250 g/ha): 100 | Plant response rating (0 to 100), Kochia ([11]; Rate 500 g/ha): 100 | Plant response rating, Johnsongrass ([12]; Rate 62 g/ha): 0 | Plant response rating, Johnsongrass ([12]; Rate 125 g/ha): 0 | Plant response rating (0 to 100), Johnsongrass ([12]; Rate 250 g/ha): 0 | Plant response rating (0 to 100), Johnsongrass ([12]; Rate 500 g/ha): 0 | Plant response rating, Cupgrass, Woolly ([13]; Rate 62 g/ha): 90 | Plant response rating, Cupgrass, Woolly ([13]; Rate 125 g/ha): 90 | Plant response rating (0 to 100), Cupgrass, Woolly ([13]; Rate 250 g/ha): 100 | Plant response rating (0 to 100), Cupgrass, Woolly ([13]; Rate 500 g/ha): 100 | Plant response rating, Sunflower [14]: 50 | Plant response rating (0 to 100), Nightshade [15]: 90 | Plant response rating, Wheat [16, 21]: 0 | Plant response rating, Wheat [16, 22]: 0 | Plant response rating, Corn [17, 21]: 0 | Plant response rating, Corn [17, 22]: 0 | Plant response rating, Barnyardgrass [18, 21]: 0 | Plant response rating, Barnyardgrass [18, 22]: 0 | Plant response rating, Wild Oat [19, 21]: 0 | Plant response rating, Wild Oat [19, 22]: 0
